One assay concerns BALB/c strain mice. The assay can be described thus: Animal test: body weight, food intake and diarrhea index of mice given 5-FU drug. It is filed as in vivo. As to the method:
(§1) A number of 5-week-old male BALB/c strain mice are selected and randomly divided into groups. The experimental period is 18 days. The temperature of rearing environment of the mice in each group is maintained at 22±2° C., with a day and night cycle of 12 hours each.
Body weight and feed intake of the mice in each group are measured and recorded every day during the testing period. The results are shown in FIG. 2 and FIG. 3; after administration of 5-FU drug, the feces of the mice in each group are collected, and the diarrhea index of the mice in each group is evaluated, the results are shown in FIG. 4.

Assay [1] has as its system chemotherapy-induced diarrhea. Conditions: literature, cited from earlier work.
The subject of assay [2] is large intestine and small intestine tissues. The assay is described as follows: Length of large intestine and hematoxylin-eosin staining of small and large intestine tissues of the mice. Conditions: same regimen. It is filed as in vivo. As to the method:
A number of 5-week-old male BALB/c strain mice are selected and randomly divided into groups. The experimental period is 18 days. The temperature of rearing environment of the mice in each group is maintained at 22±2° C., with a day and night cycle of 12 hours each. […] After the test period in embodiment 4, large intestine and small intestine tissues of the mice in each group are collected, and a length of the large intestine of the mice in each group is measured respectively, the results are shown in FIG. 6; the large intestine and small intestine of the mice in each group are sliced respectively, and stained with hematoxylin-eosin, the results are shown in FIGS. 7A and 7B.

The test system of the next assay is IL-6. The assay can be described thus: Concentration of IL-6 in the serum of the mice (commercial kit). It is filed as in vivo. Conditions: same regimen, after the test period; FIG. 5. As to the method: A number of 5-week-old male BALB/c strain mice are selected and randomly divided into groups. The experimental period is 18 days. The temperature of rearing environment of the mice in each group is maintained at 22±2° C., with a day and night cycle of 12 hours each. […] After the test period in embodiment 4, the serum of the mice in each group is collected respectively, and the concentration of IL-6 in the serum of the mice in each group is analyzed with a commercial kit.

The subject of a further assay is intestinal microflora. The assay can be described thus: Microflora analysis of feces of the mice (OTU clustering, heatmap, PLS-DA, metagenomeSeq). The format is in vivo. As to the method: as §1
After the test in embodiment 4, the feces of the mice in each group are collected, and sequence analysis of the feces of the mice in each group is outsourced, and then similarity (greater than 97%) OTUs (Operational Taxonomic Units) clustering and species classification analysis are performed. According to the species annotation results, the top 10 species with relative abundance in the mice in each group in the phylum are selected. Wherein fecal sequencing analysis and microflora analysis are known to a person having ordinary skill in the art to which the invention pertains; generally speaking, the fecal samples are firstly performed with DNA extraction and purification, followed by PCR amplification, purification and sequencing, the sequencing results will go through steps of paired sequence splicing (Raw Tags) and filtering to obtain identifiable valid data, and then OTUs clustering and species classification analysis are performed.
According to the species annotation information and abundance information of all the groups in each taxonomic rank, the top 35 genera in abundance are selected, and the group abundance is the average abundance of all the samples in the group. Clustering is performed at the species level to draw a species heatmap of the fecal samples in each group, the results are shown in FIG. 9.
Partial least square discriminant analysis (PLS-DA) is used to analyze the β-diversity of microbial flora in the feces of the mice in each group to determine whether there is a difference in bacterial flora among the microflora of the mice in each group. The microflora data of the mice in each group are analyzed by metagenomeSeq to evaluate specific differences between the microflora of the mice in each group, and the results are shown in FIG. 11A to FIG. 11D.

As to `NC(=O)CC[C@H](N)C(=O)O` [glutamine, L-glutamine], the body weight entry in the assay on BALB/c strain mice (5-FU 50 mg/kg/day i.p. days 11-13, BC198 5×10^8/day and/or glutamine 1 g/kg/day oral daily, 18 days, FIG. 2) was “able to maintain their body weight”. The food intake result in the assay with BALB/c strain mice (same regimen, FIG. 3, group 5 statement for days 14-15) was “able to maintain their body weight and food intake”. In addition, in the assay on BALB/c strain mice (same regimen, FIG. 4, compared with 5-FU only (group 2), days 14-15), the diarrhea index entry is “able to alleviate the diarrhea caused by 5-FU drug”. Moreover, in assay [1], the doxifluridine-induced diarrhea entry is “incapable of inhibiting”; the “severity of 5-FU/calciumfolinate-induced stomatitis, nausea and diarrhea” value was “incapable of mitigating severity”. Moreover, in assay [1] (patients), the “duration of chemotherapy-induced diarrhea” value was “capable of reducing the duration” and the “severity of chemotherapy-induced diarrhea” value is on record as “incapable of improving its severity”. For the same compound, in assay [2] (after the test period, FIG. 6), the “length of large intestine” value was “maintain their large intestine lengths”. Moreover, in assay [2] (FIGS. 7A and 7B, compared with 5-FU only (group 2)), the “structure of small and large intestine tissues (hematoxylin-eosin)” value is “able to mitigate lesion to the structures of the small and large intestines induced by 5-FU drug”. Besides, the “concentration of IL-6 in the serum” value in the assay with IL-6 was “significantly lower than that of the mice in group 2”. Moreover, in the assay on intestinal microflora (FIG. 8, compared with 5-FU only (group 2)), the “relative abundance of Proteobacteria in feces” value was “can be reduced”. The “abundances of the microflora associated with diarrhea and enteritis (Escherichia shigella, Odoribacter)” value in the assay with intestinal microflora (FIG. 9 heatmap, compared with group 2) is listed as “lower than that of the mice in group 2”. The “microflora distribution (PLS-DA, β-diversity)” value with intestinal microflora (FIG. 10, relative to group 2) is on record as “close to that of the mice in group 2”. Also, in the assay on intestinal microflora (metagenomeSeq, FIG. 11A, compared with group 2), the “relative abundance of UBA1819” value was “can not be significantly reduced”. In addition, in the assay with intestinal microflora (metagenomeSeq, FIG. 11B, compared with group 2), the “relative abundance of Staphylococcus” value was “can not be significantly reduced”. Also, the “relative abundance of Escherichia shigella” value in the assay on intestinal microflora (metagenomeSeq, FIG. 11C, compared with group 2) is “can be significantly reduced”. Besides, the “relative abundance of Muribaculum” value in the assay on intestinal microflora (metagenomeSeq, FIG. 11D, compared with group 2 (5-FU only)) is “significantly reduced”.

These data come from patent publication US20230293601A1 (SYNGEN BIOTECH CO., LTD., priority 2022, published 2023).
